Assay results taken from patent US5340808A, “Fused pyridazinoquinazolone derivatives as neurotrophic agents” (Warner Lambert Company, priority 1992, dated 1994).
Each block holds one molecule with its values, some of them ahead of it.

Key:
[1] = target: T1, p75 receptor (truncated form, residues 1-222) (Homo sapiens, UniProt P08138); test: Inhibition of 125I-NGF binding to the NGF p75 receptor; conditions: 2 nM 125I-NGF, 2 hours at room temperature; for inhibition at 10 µM: at 10,000 nM, read-out: Inhibition of 125I-NGF Binding to p 75 (% inh); for IC50: read-out: Inhibition of 125I-NGF Binding to p 75 (IC50)
T1 construct: truncated form (residues 1-222, molecular weight=56 KDa) of the p75 receptor; biotin (chemical label, immobilised on streptavidin); purchased Chiron Corporation, Emeryville, Calif; (also commercially available from Austral Biologicals, Inc., San Diego, Calif.)
T1 sequence (P08138 29-250): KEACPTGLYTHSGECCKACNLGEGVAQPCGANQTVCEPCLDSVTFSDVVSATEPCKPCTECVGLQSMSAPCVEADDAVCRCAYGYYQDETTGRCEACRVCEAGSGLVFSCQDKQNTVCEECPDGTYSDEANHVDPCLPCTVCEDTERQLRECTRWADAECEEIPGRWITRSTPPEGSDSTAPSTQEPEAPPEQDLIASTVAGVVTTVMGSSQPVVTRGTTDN
Procedure: Binding assays of novel compounds to the NGF p75 receptor are performed using a truncated form (residues 1-222, molecular weight=56 KDa) of the p75 receptor, originally obtained from Chiron Corporation, Emeryville, Calif., but also commercially available from Austral Biologicals, Inc. (San Diego, Calif.), on plastic 96 well microtiter plates (Immulon II Dynatech). The wells are coated with 50 μl/well of 20 μg/ml streptavidin in a […] (DPBS). The plates are then incubated at room temperature for 6 hours. The excess streptavidin is then poured out, the wells are washed with a 0.1% solution of bovine serum albumin (BSA) in DPBS. To each well is then added […] of a DPBS solution containing the truncated p75 receptor, which has previously been reacted with biotin by standard procedures. The plates are then incubated at room temperature for 2 hours, and washed with 0.2% BSA/DPBS. To each well is added 98 μl of 2 nM ^125 I-NGF, followed by 2 μl/well of a concentration of test compound that is 50 times greater than the desired final test concentration. The plates are incubated for 2 hours at room temperature. […]

sensory neuropathies = conditions: cited from earlier work
[2] = system: basal forebrain cholinergic neurons; conditions: cited from earlier work
Alzheimer's disease = conditions: recent clinical findings in humans; cited from earlier work
[3] = system: substantia nigra dopaminergic neurons; conditions: cited from earlier work

IC50 [1]: 1800 nM
Molecule: Cc1ccc2nc3ccc(C(=O)O)nn3c(=O)c2c1 [8-Methyl-10-oxo-10H-pyridazino[6,1-b]quinazoline-2-carboxylic acid]

IC50 [1]: 238 nM
Molecule: Cc1ccc(C(=O)Nc2ccc3nc4ccc(C(=O)O)nn4c(=O)c3c2)cc1 [8-[(4-Methylbenzoyl)amino]-10-oxo-10H-pyridazino [6,1-b]quinazoline-2-carboxylic acid]

inhibition at 10 µM [1]: 46%
Molecule: O=C(O)c1ccc2c(=O)n3nc(C(=O)O)ccc3nc2c1 [10-Oxo-10H-pyridazino[6,1-b]quinazoline-2,7-dicarboxylic acid]

IC50 [1]: 2190 nM
Molecule: O=C(O)c1ccc2nc3ccc(C(=O)O)nn3c(=O)c2c1 [10-Oxo-10H-pyridazino[6,1-b]quinazoline-2,8-dicarboxylic acid]

inhibition at 10 µM [1]: 39%
Molecule: O=C(O)c1ccc2nc3ccccc3c(=O)n2n1 [10-Oxo-10H-pyridazino[6,1-b]quinazoline-2-carboxylic acid]

IC50 [1]: 344 to 369 nM
Molecule: O=C(O)c1ccc2nc3cc4ccccc4cc3c(=O)n2n1 [12-Oxo-12H-benzo[g]pyridazino[3,2-b]quinazoline-2-carboxylic acid]

More lines, now with the values behind:

Molecule: CC(=O)Nc1ccc2c(=O)n3nc(C(=O)O)ccc3nc2c1 [7 -Acetylamino-10-oxo-10H-pyridazino[6,1-b]quinazoline-2-carboxylic acid]
inhibition at 10 µM [1]: 42%

Molecule: Cc1ccc2c(=O)n3nc(C(=O)O)ccc3nc2c1 [7-Methyl-10-oxo-10H-pyridazino[6,1-b]quinazoline-2-carboxylic acid]
IC50 [1]: 4900 nM

Molecule: O=C(Nc1ccc2nc3ccc(C(=O)O)nn3c(=O)c2c1)c1ccccc1 [8-(Benzoylamino)-10-oxo-10H-pyridazino[6,1-b]-quinazoline-2-carboxylic acid]
IC50 [1]: 67 nM

Molecule: O=C(O)c1ccc2nc3ccc(Cl)cc3c(=O)n2n1 [8-Chloro-10-oxo-10H-pyridazino[6,1-b]quinazoline-2-carboxylic acid]
IC50 [1]: 4000 nM

Molecule: COc1ccc2nc3ccc(C(=O)O)nn3c(=O)c2c1 [8-Methoxy-10-oxo-10H-pyridazino[6,1-b]quinazoline-2-carboxylic acid]
IC50 [1]: 1500 nM

Molecule: NGF: β-subunit, a dimer consisting of two equivalent monomers of approximately 13,000 dalton molecular weight
development of large-fiber sensory neuropathies from cisplatin, and animal model of diabetes-induced neuropathy (sensory neuropathies; cisplatin, animal model of diabetes-induced neuropathy): efficacious
development of small-fiber sensory neuropathies from taxol (sensory neuropathies; taxol): prevents the development of small-fiber sensory neuropathies
behavioral impairment associated with atrophied or lesioned basal forebrain cholinergic neurons ([2]; animals with atrophied or lesioned basal forebrain cholinergic neurons): reverse the associated behavioral impairment
ability of brain cholinergic neurons to survive a chemical insult ([2]; chemical insult): enhances the ability of brain cholinergic neurons to survive a chemical insult
degeneration of neurons in the medial septal nucleus after lesion of the septo-hippocampal pathway ([2]; into the cerebrospinal fluid via a miniosmotic pump): This neuronal degeneration can be prevented
usefulness in the treatment of AD (Alzheimer's disease): treatment with NGF is useful in the treatment of AD

B1: BDNF: member of the neurotrophins, a family of related neurotrophic peptides (protein, UniProt P23560 19-247, looked up)
Neurotrophic factor BDNF …: APMKEANIRGQGGLAYPGVRTHGTLESVNGPKAGSRGLTSLADTFEHVIEELLDEDQKVRPNEENNKDADLYTSRVMLSSQVPLEPPLLFLLEEYKNYLDAANMSMRVRRHSDPARRGELSVCDSISEWVTAADKKTAVDMSGGTVTVLEKVPVSKGQLKQYFYETKCNPMGYTKEGCRGIDKRHWNSQCRTTQSYVRALTMDSKKRIGWRFIRIDTSCVCTLTIKRGR
neurotrophic effects on substantia nigra dopaminergic neurons [3]: exerts neurotrophic effects on substantia nigra dopaminergic neurons
